Measured values taken from patent US9605064B2, “Methods and compositions for treatment of skin disorders” (AbbVie Biotechnology Ltd, priority 2006, dated 2017).
Values joined by “and” are separate entries in the source; they are usually repeats but may differ in a detail not shown here. Equal values may be shown once. Marks after values point to notes of the source that are not given here.

Assays:
[1] = test system: patients with moderate to severe chronic plaque psoriasis; assay: PASI response, CHAMPION 16-week Phase III trial vs methotrexate and placebo; format: in vivo, human; conditions: for PASI 75 Response Rates, % Patients / PASI 90 Response Rates, % Patients: missing PASI = non-responder
Description: Analytical methods included the following: • Intention-to-treat analyses were performed for all randomized patients • Missing data were analyzed using non-responder imputation (NRI) • PASI 75 at Week 16 (primary endpoint) was analyzed using adjusted Cochran-Mantel-Haenszel test.

[2] = test system: adult patients with moderate to severe chronic plaque psoriasis; assay: PASI response and loss of adequate response, REVEAL 52-week Phase III trial; format: in vivo, human; conditions: for PASI 100 Response Rates, % Patients: n = 814, ITT, NRI; for Mean Percentage PASI Improvement During Period B: relative to baseline, patients randomized to adalimumab who entered Period B, as observed; for patients with loss of adequate response: Week 33 PASI 75 responders re-randomized to continue adalimumab in period C, by Week 52
From the text: The main inclusion criteria for this study included a clinical diagnosis of psoriasis for ≧6 months and affected body surface area (BSA)≧10% and PASI≧12. The main exclusion criteria included prior use of systemic or biologic anti-TNF therapy. The washout period included two weeks for topical agents and UVB, 4 weeks for PUVA and non-biologic systemic therapies, and 12 weeks for all biologic therapies. The two co-primary endpoints were: • Percentage of patients achieving PASI≧75 at Week 16 • Percentage of patients, among Week 33 PASI≧75 responders, losing an adequate response after Week 33, characterized by: • PASI<50 (relative to baseline) and • At least a 6 point increase in PASI
Period A was double-blind, placebo-controlled, and lasted from weeks 0-16. […] At Week 16 patients who achieved ≧PASI 75 improvement continued into Period B, while those patients having <PASI 75 improvement entered the open label extension (OLE) study (FIG. 7).
Period B was open-label and lasted from Weeks 17-33. […] Patients who achieved ≧PASI 75 response at Week 33 entered Period C.
Period C was a double-blind, placebo-controlled which was held from weeks 34-52.
Various analytical methods were used in the study. Intention-to-treat (ITT) analyses were performed for all randomized patients in Periods A and C. […] Week 24 results from NRI analysis include pooled efficacy outcomes from OLE and Period B. After Week 24, non-overlapping OLE and Period B study visits prevent complete pooling of efficacy outcomes. Continuous variables were analyzed as observed during Period B
The REVEAL study had two independent primary endpoints. The first endpoint was the proportion of patients achieving 75 percent improvement in skin clearance after 16 weeks. The second endpoint was the proportion of patients who lost adequate response through week 52 after stopping treatment with HUMIRA at week 33. Signs of psoriasis were evaluated using the Psoriasis Area and Severity Index (PASI), among other measures. […] At week 52, the start of the OLE period, patients randomized at week 33, as well as patients originally in the placebo group at week 0, were able to enter the OLE period.

[3] = test system: patients with moderate to severe plaque psoriasis; assay: PASI response and relapse, 12-week open-label weekly therapy then randomized eow or withdrawal; format: in vivo, human
[4] = test system: patients with moderate to severe psoriasis; assay: PGA, open-label extension of REVEAL; format: in vivo, human; conditions: for PGA “Clear” or “Minimal”: n = 233, ITT, LOCF
Description: Laboratory parameters and adverse events were also recorded.

[5] = test system: patients with moderate to severe chronic plaque psoriasis; assay: PASI response, open-label extension of CHAMPION (methotrexate to adalimumab transition); format: in vivo, human
[6] = test system: patients with severe psoriasis who were non-responders to high-dosage etanercept; assay: DLQI, open-label adalimumab in non-responders to high-dosage etanercept; format: in vivo, human
Description: Details on clinical course and adverse events were recorded, along with measurements of PASI and Dermatology Life Quality Index (DLQI) at baseline and Weeks 2, 4, 8, and 12.
At each clinical visit PASI, DLQI, and percentage body surface area (% BSA) affected were assessed and recorded. In addition, patients received medical assessments together with monitoring laboratory investigations (FIG. 11).

[7] = test system: patients with chronic plaque psoriasis; assay: PGA, 16-week open-label Phase IIIb trial after suboptimal response to ETN, MTX or NB-UVB; format: in vivo, human; conditions: week 16
From the text: (§1) This 16-week, multicenter, open-label, Phase IIIb trial enrolled patients with chronic plaque psoriasis who were having a suboptimal response to ETN (Physician's Global Assessment [PGA]≧mild with months of therapy, or ≧3 months of therapy and deterioration of efficacy), MTX (PGA≧mild with ≧4 months of therapy), or narrow-band ultraviolet B (NB-UVB) phototherapy (PGA moderate with months of therapy). […] The primary endpoint was the proportion of patients who achieved PGA of clear or minimal at week 16. A secondary endpoint was the proportion achieving ≧1 grade of PGA improvement. Safety was assessed throughout the study. Efficacy analyses were intention to treat, with nonresponder imputation used for missing data. Efficacy and safety results were analyzed overall and for each prior-treatment group.

[8] = test system: adult patients with moderate to severe chronic plaque psoriasis; conditions: in vivo
[9] = test system: patients with moderate to severe psoriasis; conditions: in vivo
[10] = test system: patients with chronic plaque psoriasis; assay: Safety, 16-week open-label Phase IIIb trial after suboptimal response to ETN, MTX or NB-UVB
From the text: as §1

[11] = Week 4, open-label 40 mg weekly, missing = non-responder
[12] = Week 8, open-label 40 mg weekly, missing = non-responder
[13] = Week 12, open-label 40 mg weekly, missing = non-responder
[14] = Week 24, randomized at Week 12 to 40 mg eow, missing = non-responder
[15] = open-label 40 mg weekly, Week 12
[16] = methotrexate-treated patients after 12 weeks of adalimumab therapy
[17] = methotrexate-treated patients after 24 weeks of adalimumab therapy

“Adalimumab: a human anti-TNF mAb, described in U.S. Pat. No. 6,090,382 as D2E7 (HUMIRA, Abbott Laboratories)” was tested, and the “mean percentage PASI improvement” value ([1]; Week 4) was 57%, the “PASI 75 Response Rates, % Patients” value ([1]; Week 4, ITT) was 23*† % and the “PASI 90 Response Rates, % Patients” value ([1]; Week 4, ITT) was 7* %. For the same substance, the “PASI 75 Response Rates, % Patients” value ([1]; Week 8, ITT) was 62‡ %, the “PASI 90 Response Rates, % Patients” value ([1]; Week 8, ITT) was 27†‡ % and the “PASI 75 Response Rates, % Patients” value ([1]; Week 12, ITT) was 77‡ %. The “PASI 90 Response Rates, % Patients” value ([1]; Week 12, ITT) was 48†‡ %, the “PASI 75” value ([1]; Week 16, ITT, NRI) was 80% and the “PASI 75 Response Rates, % Patients” value ([1]; Week 16, ITT) was 80‡ %. For the same substance, the “PASI 90 Response Rates, % Patients” value ([1]; Week 16, ITT) was 52†‡ %, the “PASI 75 Response Rates, % Patients” value ([1]; Week 16, ITT, listed as ADA) was 79.6% * † and the “PASI 90 Response Rates, % Patients” value ([1]; Week 16, ITT, listed as ADA) was 51.9% * †. For the same substance, the “PASI 50 response rate” value ([1]; Week 16 of CHAMPION, ITT, NRI) was 88.0% * †, the “PASI 100 response rate” value ([1]; Week 16 of CHAMPION, ITT, NRI) was 16.7% ‡ § and the “PASI 100 Response Rates, % Patients” value ([2]; Week 4, double-blind) was 0.9%. The “PASI 100 Response Rates, % Patients” value ([2]; Week 8, double-blind) was 7.1* %, the “PASI 100 Response Rates, % Patients” value ([2]; Week 12, double-blind) was 14.4* % and the “PASI 100 Response Rates, % Patients” value ([2]; Week 16, double-blind) was 20* %. For the same substance, the “Mean Percentage PASI Improvement During Period B” value ([2]; Week 16) was 91.9%, the “PASI 100 Response Rates, % Patients” value ([2]; Week 24, open-label, pooled Period B and OLE) was 22.5* % and the “Mean Percentage PASI Improvement During Period B” value ([2]; Week 24) was 91.2%. The “Mean Percentage PASI Improvement During Period B” value ([2]; Week 33) was 89.3%, the “patients with loss of adequate response” value [2] was 4.9* % and the “patients with loss of adequate response” value ([2]; listed as adalimumab) was 5%. For the same substance, the “PASI50 response, Patients (%)” value [3, 11] was 59%, the “PASI75 response, Patients (%)” value [3, 11] was 26% and the “PASI90 response, Patients (%)” value [3, 11] was 9%. For the same substance, the “PASI50 response, Patients (%)” value [3, 12] was 84%, the “PASI75 response, Patients (%)” value [3, 12] was 55% and the “PASI90 response, Patients (%)” value [3, 12] was 30%. For the same substance, the “PASI50 response, Patients (%)” value [3, 13] was 92%, the “PASI75 response, Patients (%)” value [3, 13] was 30% and the “PASI90 response, Patients (%)” value [3, 13] was 47%. For the same substance, the “PASI50, Patients (%)” value [3, 14] was 78%, the “PASI75, Patients (%)” value [3, 14] was 68** % and the “PASI90, Patients (%)” value [3, 14] was 47** %. The “PASI 50 response rate” value ([3]; open-label 40 mg weekly, Week 2) was 28%, the “PASI 50 response rate” value [3, 15] was 92% and the “PASI 75 response” value [3, 15] was 76.4%. For the same substance, the “PASI 90 response” value [3, 15] was 47.3%, the “patients who achieved ≧PASI 50 responses” value ([3]; patients exposed to alefacept within the past year, Week 12) was 6/6 and the “patients who achieved ≧PASI 50 responses” value ([3]; patients exposed to efalizumab within the past year, Week 12) was 14/15. For the same substance, the “patients who achieved ≧PASI 50 responses” value ([3]; patients exposed to etanercept within the past year, Week 12) was 12/14, the “patients who achieved ≧PASI 50 responses” value ([3]; patients exposed to infliximab within the past year, Week 12) was 4/4 and the “PGA scores of “clear” or “minimal” value ([4]; OLE of REVEAL) was 74%. For the same substance, the “PGA “Clear” or “Minimal”” value ([4]; Week 0 of OLE) was 70%, the “PGA “Clear” or “Minimal”” value ([4]; Week 12 of OLE) was 71% and the “PGA “Clear” or “Minimal”” value ([4]; Week 24 of OLE) was 74%. For the same substance, the “PASI 75 response rate” value [5, 16] was 75%, the “PASI 90 response rate” value [5, 16] was 47% and the “PASI 100 response rate” value [5, 16] was 18%. The “PASI 75 response rate” value [5, 17] was 73%, the “PASI 90 response rate” value [5, 17] was 53% and the “PASI 100 response rate” value [5, 17] was 32%. The DLQI ([6]; Week 2, individual patients 1-5 (c1-c5), weekly adalimumab) was 17 and 10 and 30 and 9 and 5, the DLQI ([6]; Week 4, individual patients 1-5 (c1-c5), weekly adalimumab) was 16 and 5 and 28 and 4 and 7 and the DLQI ([6]; Week 8, individual patients 1-5 (c1-c5), weekly adalimumab) was 15 and 3 and 0 and 9. The DLQI ([6]; Week 12, individual patients 1-5 (c1-c5), weekly adalimumab) was 6 (2×) and 1 and 26 and 2, the “mean decrease in DLQI score” value ([6]; five patients, Week 12) was 8.8 and the “% Improvement in DLQI from baseline to Week 12” value ([6]; individual patients 1-5 (c1-c5), weekly adalimumab) was 68% and 91% and 13% and 82% and 57%. The “≧1 grade improvement in PGA” value ([7]; all patients) was 75.0%, the “PGA of clear or minimal” value ([7]; prior ETN group) was 48.8% and the “≧1 grade improvement in PGA” value ([7]; prior ETN group) was 72.0%. For the same substance, the “PGA of clear or minimal” value ([7]; prior MTX group) was 61.0%, the “≧1 grade improvement in PGA” value ([7]; prior MTX group) was 78.0% and the “PGA of clear or minimal” value ([7]; prior NB-UVB group) was 48.3%. For the same substance, the “≧1 grade improvement in PGA” value ([7]; prior NB-UVB group) was 79.3%, the “Infectious AEs, percentage” value [8] was 28.9‡ % and the “Upper Respiratory Tract Infection” value [8] was 59 (7.2) n (%). The “Infectious AEs, Patients (%)” value [9] was 18%, the “Serious infectious AE, Patients (%)” value [9] was 1% and the “patients with serious infections” value [9] was 0.9%. For the same substance, the malignancies ([10]; 16-week trial) was “no malignancies were reported” and the “patients with >25% worsening in PASI scores” value ([10]; all patients (2 MTX, 2 ETN)) was 2.6%.
